Laboratory results: US7138361B2, “Herbicidal heterocycles” (E. I. du Pont de Nemours and Company, priority 2000, dated 2006)

How the values were obtained:
Type in all cases: in vivo
Sunflower = assay: Test C preemergence; conditions: scale 0 to 100, 0 no effect, 100 complete control
Nightshade [1] = assay: Test C preemergence; conditions: visual evaluation after 12 to 14 days
kochia (Kochia scoparia) = assay: Test C preemergence; conditions: for Plant response rating (0 to 100), Kochia: visual evaluation after 12 to 14 days
In short: (§1)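 Each compound was dissolved in a non-phytotoxic solvent system containing a surfactant and sprayed either on freshly planted seeds (preemergence) or on young plants, 2 to 18 cm high (postemergence). Ratings after 12 to 14 greenhouse days ran from 0, no effect, to 100, complete control.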

[2] = system: lambsquarters (Chenopodium album); assay: Test C preemergence; conditions: for Plant response rating (0 to 100), Lambsquarters: visual evaluation after 12 to 14 days
In short: as §1

[3] = system: pigweed (Amaranthus retroflexus); assay: Test C preemergence; conditions: for Plant response rating (0 to 100), Pigweed: visual evaluation after 12 to 14 days
In short: as §1

[4] = system: johnsongrass (Sorghum halepense); assay: Test C preemergence; conditions: for Plant response rating (0 to 100), Johnsongrass: visual evaluation after 12 to 14 days
In short: as §1

[5] = system: yellow nutsedge (Cyperus esculentus); assay: Test C preemergence; conditions: for Plant response rating (0 to 100), Nutsedge: visual evaluation after 12 to 14 days
In short: as §1

[6] = system: woolly cupgrass (Eriochloa villosa); assay: Test C preemergence; conditions: for Plant response rating (0 to 100), Cupgrass, Woolly: visual evaluation after 12 to 14 days
In short: as §1

soybean (Glycine max) = assay: Test C preemergence; conditions: for Plant response rating (0 to 100), Soybean: visual evaluation after 12 to 14 days
In short: as §1

Nightshade [7] = assay: Test C preemergence
corn (Zea mays) [8] = assay: Test C preemergence; conditions: for Plant response rating (0 to 100), Corn: visual evaluation after 12 to 14 days
In short: as §1

[9] = system: barnyardgrass (Echinochloa crus-galli); assay: Test B postemergence; conditions: 13 to 15 days
In short: (§2)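 Post-treatment, species sat 13–15 days under greenhouse conditions before visual scoring against controls, 0 (no effect) through 100 (complete control). Application preemergence to sown seeds or postemergence at 1- to 4-leaf stage, using a non-phytotoxic solvent/surfactant formulation.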

[10] = system: wheat (Triticum aestivum); assay: Test B postemergence; conditions: 13 to 15 days
In short: as §2

wild oat (Avena fatua) = assay: Test B postemergence; conditions: 13 to 15 days
In short: as §2

corn (Zea mays) [11] = assay: Test B postemergence; conditions: 13 to 15 days
In short: as §2

rice (Oryza saliva) = assay: Test C flooded paddy test; conditions: for Rice plant response rating: Flooded Paddy, scale 0 to 100, 0 no effect, 100 complete control; for Plant response rating, Rice / Plant response rating (scale 0 to 100), Rice: flooded paddy test; for Plant response rating, Rice: scale 0 to 100 (0 no effect, 100 complete control)
In short: (§3)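 Rice and three paddy weeds were grown to the 2-leaf stage under flooded conditions, then treated and kept in a greenhouse for 12–14 days. Response was rated visually against untreated controls on a 0–100 scale, where 100 is complete control.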

[12] = system: barnyardgrass (Echinochloa crus-galli); assay: Test C flooded paddy test; conditions: for Barnyardgrass plant response rating: Flooded Paddy, scale 0 to 100, 0 no effect, 100 complete control; for Plant response rating, Barnyardgrass / Plant response rating (scale 0 to 100), Barnyardgrass: flooded paddy test; for Plant response rating, Barnyardgrass: scale 0 to 100 (0 no effect, 100 complete control)
In short: as §3

[13] = system: duck salad (Heteranthera limosa); assay: Test C flooded paddy test; conditions: for Ducksalad plant response rating: Flooded Paddy, scale 0 to 100, 0 no effect, 100 complete control; for Plant response rating, Ducksalad / Plant response rating (scale 0 to 100), Ducksalad: flooded paddy test; for Plant response rating, Ducksalad: scale 0 to 100 (0 no effect, 100 complete control)
In short: as §3

[14] = system: smallflower flatsedge (Cyperus difformis); assay: Test C flooded paddy test; conditions: for Flatsedge plant response rating: Flooded Paddy, scale 0 to 100, 0 no effect, 100 complete control; for Plant response rating, Flatsedge / Plant response rating (scale 0 to 100), Flatsedge: flooded paddy test; for Plant response rating, Flatsedge: scale 0 to 100 (0 no effect, 100 complete control)
In short: as §3

[15] = Rate 125 g/ha, scale 0 to 100, 0 no effect, 100 complete control
[16] = preemergence, Rate 62 g/ha, scale 0 to 100
[17] = preemergence, Rate 250 g/ha, scale 0 to 100, 0 no effect, 100 complete control
[18] = Rate 125 g/ha, scale 0 (no effect) to 100 (complete control)
[19] = Rate 500 g/ha, scale 0 to 100, 0 is no effect, 100 is complete control
[20] = Rate 16 g/ha, visually evaluated after 12 to 14 days, 0 = no effect, 100 = complete control
[21] = under head Rate 16 g/ha, (own rate not given), after 12 to 14 days
[22] = Rate 62 g/ha, scale 0 to 100, 0 no effect, 100 complete control
[23] = preemergence, Rate 31 g/ha, scale 0 to 100
[24] = preemergence, Rate 125 g/ha, scale 0 to 100, 0 no effect, 100 complete control

CCCC(C)c1ccn(C2OCN(c3cccc(OC(F)(F)F)c3)C2=O)n1 (centres unmarked) [Compound 91]
Plant response rating, Sunflower (Sunflower; Rate 250 g/ha): 0 | Plant response rating (0 to 100), Nightshade (Nightshade [1]; Rate 500 g/ha): 10 | Plant response rating, Kochia (kochia (Kochia scoparia); [15]): 90 | Plant response rating, Kochia (kochia (Kochia scoparia); [16]): 20 | Plant response rating (0 to 100), Kochia (kochia (Kochia scoparia); preemergence, Rate 500 g/ha): 100 | Plant response rating, Kochia (kochia (Kochia scoparia); [17]): 90 | Plant response rating, Lambsquarters [2, 15]: 100 | Plant response rating, Lambsquarters [2, 16]: 90 | Plant response rating (0 to 100), Lambsquarters ([2]; preemergence, Rate 500 g/ha): 100 | Plant response rating, Lambsquarters [2, 17]: 100 | Plant response rating, Pigweed [3, 15]: 0 | Plant response rating, Pigweed [3, 16]: 0 | Plant response rating (0 to 100), Pigweed ([3]; preemergence, Rate 500 g/ha): 100 | Plant response rating, Pigweed [3, 17]: 0 | Plant response rating, Johnsongrass [4, 15]: 80 | Plant response rating, Johnsongrass [4, 16]: 20 | Plant response rating (0 to 100), Johnsongrass ([4]; preemergence, Rate 500 g/ha): 100 | Plant response rating, Johnsongrass [4, 17]: 90 | Plant response rating, Nutsedge [5, 15]: 0 | Plant response rating, Nutsedge [5, 16]: 0 | Plant response rating (0 to 100), Nutsedge ([5]; preemergence, Rate 500 g/ha): 0 | Plant response rating, Nutsedge [5, 17]: 0 | Plant response rating, Cupgrass, Woolly [6, 15]: 70 | Plant response rating, Cupgrass, Woolly [6, 16]: 10 | Plant response rating (0 to 100), Cupgrass, Woolly ([6]; preemergence, Rate 500 g/ha): 100 | Plant response rating, Cupgrass, Woolly [6, 17]: 90 | Plant response rating, Soybean (soybean (Glycine max); [15]): 0 | Plant response rating, Soybean (soybean (Glycine max); [16]): 0 | Plant response rating (0 to 100), Soybean (soybean (Glycine max); preemergence, Rate 500 g/ha): 0 | Plant response rating, Soybean (soybean (Glycine max); [17]): 0 | Plant response rating, Nightshade (Nightshade [7]; Rate 62 g/ha, scale 0 to 100): 0 | Plant response rating, Nightshade (Nightshade [7]; Rate 125 g/ha; scale 0 to 100, 0 no effect, 100 complete control): 0 | Plant response rating, Nightshade (Nightshade [7]; Rate 250 g/ha, scale 0 to 100, 0 no effect, 100 complete control): 0 | Plant response rating, Corn (corn (Zea mays) [8]; [15]): 0 | Plant response rating, Corn (corn (Zea mays) [8]; [16]): 0 | Plant response rating (0 to 100), Corn (corn (Zea mays) [8]; preemergence, Rate 500 g/ha): 10 | Plant response rating, Corn (corn (Zea mays) [8]; [17]): 10 | Plant response rating, Barnyardgrass [9, 18]: 50 | Plant response rating, Barnyardgrass [9, 19]: 90 | Plant response rating, Wheat [10, 19]: 0 | Plant response rating, Wild Oat (wild oat (Avena fatua); [19]): 0 | Plant response rating, Corn (corn (Zea mays) [11]; [18]): 0 | Plant response rating, Corn (corn (Zea mays) [11]; [19]): 10 | Rice plant response rating (rice (Oryza saliva); Rate 250 g/ha): 20 | Rice plant response rating (rice (Oryza saliva); Rate 500 g/ha): 40 | Plant response rating, Rice (rice (Oryza saliva); Rate 62 g/ha): 0 | Plant response rating, Rice (rice (Oryza saliva); Rate 125 g/ha): 20 | Plant response rating (scale 0 to 100), Rice (rice (Oryza saliva); [20]): 0 | Plant response rating (scale 0 to 100), Rice (rice (Oryza saliva); [21]): 0 | Barnyardgrass plant response rating ([12]; Rate 250 g/ha): 100 | Barnyardgrass plant response rating ([12]; Rate 500 g/ha): 100 | Plant response rating, Barnyardgrass ([12]; Rate 62 g/ha): 0 | Plant response rating, Barnyardgrass ([12]; Rate 125 g/ha): 50 | Plant response rating (scale 0 to 100), Barnyardgrass [12, 20]: 0 | Plant response rating (scale 0 to 100), Barnyardgrass [12, 21]: 0 | Ducksalad plant response rating ([13]; Rate 250 g/ha): 90 | Ducksalad plant response rating ([13]; Rate 500 g/ha): 70 | Plant response rating, Ducksalad ([13]; Rate 62 g/ha): 80 | Plant response rating, Ducksalad ([13]; Rate 125 g/ha): 0 | Plant response rating (scale 0 to 100), Ducksalad [13, 20]: 0 | Plant response rating (scale 0 to 100), Ducksalad [13, 21]: 0 | Flatsedge plant response rating ([14]; Rate 250 g/ha): 100 | Flatsedge plant response rating ([14]; Rate 500 g/ha): 100 | Plant response rating, Flatsedge ([14]; Rate 62 g/ha): 0 | Plant response rating, Flatsedge ([14]; Rate 125 g/ha): 70 | Plant response rating (scale 0 to 100), Flatsedge [14, 20]: 0 | Plant response rating (scale 0 to 100), Flatsedge [14, 21]: 0

CC(C)(C)c1ccn(C2SCN(c3cccc(OC(F)F)c3)C2=O)n1 (centres unmarked) [Compound 36]
Plant response rating, Sunflower (Sunflower; Rate 125 g/ha): 0 | Plant response rating (0 to 100), Nightshade (Nightshade [1]; Rate 250 g/ha): 90 | Plant response rating, Kochia (kochia (Kochia scoparia); [22]): 100 | Plant response rating, Kochia (kochia (Kochia scoparia); [23]): 70 | Plant response rating (0 to 100), Kochia (kochia (Kochia scoparia); preemergence, Rate 250 g/ha): 100 | Plant response rating, Kochia (kochia (Kochia scoparia); [24]): 100 | Plant response rating, Lambsquarters [2, 22]: 100 | Plant response rating, Lambsquarters [2, 23]: 100 | Plant response rating (0 to 100), Lambsquarters ([2]; preemergence, Rate 250 g/ha): 100 | Plant response rating, Lambsquarters [2, 24]: 100 | Plant response rating, Pigweed [3, 22]: 0 | Plant response rating, Pigweed [3, 23]: 0 | Plant response rating (0 to 100), Pigweed ([3]; preemergence, Rate 250 g/ha): 100 | Plant response rating, Pigweed [3, 24]: 0 | Plant response rating, Johnsongrass [4, 22]: 90 | Plant response rating, Johnsongrass [4, 23]: 50 | Plant response rating (0 to 100), Johnsongrass ([4]; preemergence, Rate 250 g/ha): 100 | Plant response rating, Johnsongrass [4, 24]: 90 | Plant response rating, Nutsedge [5, 22]: 0 | Plant response rating, Nutsedge [5, 23]: 0 | Plant response rating (0 to 100), Nutsedge ([5]; preemergence, Rate 250 g/ha): 30 | Plant response rating, Nutsedge [5, 24]: 30 | Plant response rating, Cupgrass, Woolly [6, 22]: 60 | Plant response rating, Cupgrass, Woolly [6, 23]: 30 | Plant response rating (0 to 100), Cupgrass, Woolly ([6]; preemergence, Rate 250 g/ha): 100 | Plant response rating, Cupgrass, Woolly [6, 24]: 100 | Plant response rating, Soybean (soybean (Glycine max); [22]): 30 | Plant response rating, Soybean (soybean (Glycine max); [23]): 30 | Plant response rating (0 to 100), Soybean (soybean (Glycine max); preemergence, Rate 250 g/ha): 50 | Plant response rating, Soybean (soybean (Glycine max); [24]): 50 | Plant response rating, Nightshade (Nightshade [7]; Rate 31 g/ha, scale 0 to 100): 0 | Plant response rating, Nightshade (Nightshade [7]; Rate 62 g/ha; scale 0 to 100, 0 no effect, 100 complete control): 30 | Plant response rating, Nightshade (Nightshade [7]; [15]): 50 | Plant response rating, Corn (corn (Zea mays) [8]; [22]): 20 | Plant response rating, Corn (corn (Zea mays) [8]; [23]): 0 | Plant response rating (0 to 100), Corn (corn (Zea mays) [8]; preemergence, Rate 250 g/ha): 80 | Plant response rating, Corn (corn (Zea mays) [8]; [24]): 40 | Plant response rating, Barnyardgrass [9, 18]: 90 | Plant response rating, Barnyardgrass [9, 19]: 100 | Plant response rating, Wheat [10, 18]: 0 | Plant response rating, Wheat [10, 19]: 0 | Plant response rating, Wild Oat (wild oat (Avena fatua); [18]): 0 | Plant response rating, Wild Oat (wild oat (Avena fatua); [19]): 20 | Plant response rating, Corn (corn (Zea mays) [11]; [18]): 0 | Plant response rating, Corn (corn (Zea mays) [11]; [19]): 70 | Rice plant response rating (rice (Oryza saliva); Rate 250 g/ha): 90 | Rice plant response rating (rice (Oryza saliva); Rate 500 g/ha): 90 | Plant response rating, Rice (rice (Oryza saliva); Rate 62 g/ha): 30 | Plant response rating, Rice (rice (Oryza saliva); Rate 125 g/ha): 80 | Barnyardgrass plant response rating ([12]; Rate 250 g/ha): 100 | Barnyardgrass plant response rating ([12]; Rate 500 g/ha): 100 | Plant response rating, Barnyardgrass ([12]; Rate 62 g/ha): 100 | Plant response rating, Barnyardgrass ([12]; Rate 125 g/ha): 100 | Ducksalad plant response rating ([13]; Rate 250 g/ha): 100 | Ducksalad plant response rating ([13]; Rate 500 g/ha): 100 | Plant response rating, Ducksalad ([13]; Rate 62 g/ha): 80 | Plant response rating, Ducksalad ([13]; Rate 125 g/ha): 90 | Flatsedge plant response rating ([14]; Rate 250 g/ha): 100 | Flatsedge plant response rating ([14]; Rate 500 g/ha): 100 | Plant response rating, Flatsedge ([14]; Rate 62 g/ha): 100 | Plant response rating, Flatsedge ([14]; Rate 125 g/ha): 100
